Results published in publication PMC4258814, “Differences between murine arylamine N-acetyltransferase type 1 and human arylamine N-acetyltransferase type 2 defined by substrate specificity and inhibitor binding” (BMC Pharmacology & Toxicology, 2014).
Where a chain is given by its changes, count along the chain named.

Tests used:
(MOUSE)NAT1*1 = biological target: T1, (MOUSE)NAT1*1 (Mus musculus, UniProt P50294); test: Substrate specific N-acetylation profile; format: biochemical; settings: for % specific activity values: substrate 500 μM, relative to substrate with highest specific activity (100%), mean of 3 ± SD
T1 construct: The open reading frame of (MOUSE)Nat1*1 [32] was subcloned; hexa-His (N, cleaved yes); made in house; host or cells: Escherichia coli BL21(DE3)CodonPlus-RIL
T1 sequence (P50294 1-290): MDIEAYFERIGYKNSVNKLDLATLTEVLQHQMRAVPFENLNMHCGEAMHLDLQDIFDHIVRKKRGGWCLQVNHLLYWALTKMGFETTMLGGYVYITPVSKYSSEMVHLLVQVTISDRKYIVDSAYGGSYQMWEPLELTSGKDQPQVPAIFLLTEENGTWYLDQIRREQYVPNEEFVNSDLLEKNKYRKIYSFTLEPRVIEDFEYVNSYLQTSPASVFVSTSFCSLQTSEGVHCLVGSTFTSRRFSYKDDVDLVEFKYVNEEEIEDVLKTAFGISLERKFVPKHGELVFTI

(MOUSE)NAT2_F125S = biological target: T2, (MOUSE)NAT2_F125S (Mus musculus, UniProt P50295, F125S); test: Substrate specific N-acetylation profile; format: biochemical; settings: for % specific activity values: (MOUSE)NAT2 F125S, substrate 500 μM, relative to substrate with highest specific activity (100%), mean of 3 ± SD
T2 construct: His tag (only implied by Ni-NTA purification) (cleaved yes); made in house; host or cells: E. coli Rosetta(DE3)pLysS
T2 sequence (P50295 1-290 F125S): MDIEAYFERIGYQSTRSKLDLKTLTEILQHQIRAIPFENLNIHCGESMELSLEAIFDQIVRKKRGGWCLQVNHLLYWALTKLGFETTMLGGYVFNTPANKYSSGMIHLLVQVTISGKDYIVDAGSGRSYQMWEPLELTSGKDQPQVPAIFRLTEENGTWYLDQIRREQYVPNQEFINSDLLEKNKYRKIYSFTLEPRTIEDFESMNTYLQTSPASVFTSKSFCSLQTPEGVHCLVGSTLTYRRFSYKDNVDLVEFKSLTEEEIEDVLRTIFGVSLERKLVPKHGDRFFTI

(MESAU)NAT2*1 = test system: (MESAU)NAT2*1; set-up: method as in PMID 15627487, PMID 18280460; settings: substrate 500 μM, relative to substrate with highest specific activity (100%), mean of 3 ± SD, ref [8], [22]; cited from earlier work
[1] = ref [56]–[61], cited from earlier work; for pKaH of acetyl acceptor amine: as summarised in text from Table S1
(MOUSE)NAT2_R127G = biological target: T3, (MOUSE)NAT2_R127G (Mus musculus, UniProt P50295, R127G); test: Substrate specific N-acetylation profile; format: biochemical; settings: (MOUSE)NAT2 R127G; substrate 500 μM; relative to substrate with highest specific activity (100%); mean of 3 ± SD
T3 construct: made in house
T3 sequence (P50295 1-290 R127G): T2 sequence (P50295 1-290 F125S) with S125F, R127G

(HUMAN)NAT1*4 = test system: (HUMAN)NAT1*4; set-up: method as in PMID 15627487, PMID 18280460; settings: substrate 500 μM, relative to substrate with highest specific activity (100%), mean of 3 ± SD, ref [8], [22]; cited from earlier work
(HUMAN)NAT2*4 = biological target: T4, (HUMAN)NAT2*4 (Homo sapiens, UniProt P11245); set-up: method as in PMID 15627487, PMID 18280460; settings: substrate 500 μM, relative to substrate with highest specific activity (100%), mean of 3 ± SD, ref [8], [22]; cited from earlier work
T4 construct: made in house
T4 sequence (P11245 1-290): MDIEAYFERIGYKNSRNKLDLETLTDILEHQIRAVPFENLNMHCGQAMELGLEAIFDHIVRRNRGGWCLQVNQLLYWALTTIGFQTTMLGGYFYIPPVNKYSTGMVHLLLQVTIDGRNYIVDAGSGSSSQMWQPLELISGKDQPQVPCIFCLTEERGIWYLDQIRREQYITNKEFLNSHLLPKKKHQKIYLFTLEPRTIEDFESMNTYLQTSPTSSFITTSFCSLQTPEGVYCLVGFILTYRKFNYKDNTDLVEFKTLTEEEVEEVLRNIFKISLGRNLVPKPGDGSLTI

(MOUSE)NAT2*1 = biological target: T5, (MOUSE)NAT2*1 (Mus musculus, UniProt P50295); test: Substrate specific N-acetylation profile; format: biochemical; settings: for % specific activity values: substrate 500 μM, relative to substrate with highest specific activity (100%), mean of 3 ± SD
T5 construct: made in house
T5 sequence (P50295 1-290): T2 sequence (P50295 1-290 F125S) with S125F

(MOUSE)NAT2_R127L = biological target: T6, (MOUSE)NAT2_R127L (Mus musculus, UniProt P50295, R127L); test: Substrate specific N-acetylation profile; format: biochemical; settings: for % specific activity values: (MOUSE)NAT2 R127L, substrate 500 μM, relative to substrate with highest specific activity (100%), mean of 3 ± SD
T6 construct: made in house
T6 sequence (P50295 1-290 R127L): T2 sequence (P50295 1-290 F125S) with S125F, R127L

Compound	% specific activity values ((MOUSE)NAT1*1)	% specific activity values ((MOUSE)NAT2_F125S)	% specific activity values ((MESAU)NAT2*1)	pKa(H) (NH3^+) [1]	% specific activity values ((MOUSE)NAT2_R127G)	% specific activity values ((HUMAN)NAT1*4)	% specific activity values ((HUMAN)NAT2*4)	% specific activity values ((MOUSE)NAT2*1)	% specific activity values ((MOUSE)NAT2_R127L)	further results
Nc1ccc(C(=O)O)cc1 [4ABA, 4-aminobenzoic acid]	48 ± 6%	70 ± 2%	100 ± 6%	2.4	8 ± 1%	100 ± 2%	6 ± 1%	100 ± 2%	8 ± 1%	pKaH of acetyl acceptor amine [1]: < 3; pKa(H) (COOH) [1]: 4.9; Maximal specific activity ((MOUSE)NAT2*1; best substrate, 500 μM): 196 µM/s/mg
Nc1ccc(C(=O)N[C@@H](CCC(=O)O)C(=O)O)cc1 [4ABglu, 4-aminobenzoyl glutamate]	8 ± 7%	19 ± 1%	57 ± 3%	2.7	9 ± 1%	20 ± 1%	3 ± 1%	87 ± 1%	8 ± 1%	pKaH of acetyl acceptor amine [1]: < 3; pKa(H) (α-COOH) [1]: 3.6; pKa(H) (γ-COOH) [1]: 4.7
Nc1ccc(C(=O)O)c(O)c1 [4AS, 4-aminosalicylate]	88 ± 6%	75 ± 3%	74 ± 3%	2.3	27 ± 1%	67 ± 2%	7 ± 1%	55 ± 1%	13 ± 1%	pKaH of acetyl acceptor amine [1]: < 3; pKa(H) (COOH) [1]: 6.0; pKa(H) (OH) [1]: 13.2
COc1ccc(N)cc1OC [4AV, 4-aminoveratrole]	28 ± 6%	90 ± 1%	32 ± 1%	4.7 (NH3^+)	66 ± 3%	25 ± 2%	57 ± 3%	90 ± 1%	100 ± 10%	Maximal specific activity ((MOUSE)NAT2_R127L; (MOUSE)NAT2_R127L, best substrate, 500 μM): 82.5 µM/s/mg
Nc1ccc(Br)cc1 [4BA, 4-bromoaniline]	28 ± 6%	47 ± 2%	72 ± 1%	3.4 (NH3^+)	70 ± 1%	50 ± 1%	72 ± 1%	52 ± 2%	81 ± 11%	
Nc1ccc(Cl)cc1 [4CA, 4-chloroaniline]	18 ± 3%	56 ± 2%	61 ± 2%	3.8 (NH3^+)	54 ± 3%	36 ± 2%	71 ± 3%	46 ± 4%	70 ± 1%	
Nc1ccc(I)cc1 [4IA, 4-iodoaniline]	28 ± 3%	69 ± 2%	81 ± 1%	3.8 (NH3^+)	97 ± 1%	63 ± 1%	65 ± 2%	72 ± 3%	74 ± 8%	
Nc1ccc(O)c(C(=O)O)c1 [5AS, 5-aminosalicylate]	76 ± 6%	74 ± 1%	30 ± 1%		94 ± 1%	64 ± 3%	64 ± 2%	37 ± 1%	65 ± 9%	
COc1ccc(N)cc1 [ANS, 4-methoxyaniline]	48 ± 1%	100 ± 3%	89 ± 1%	5.2 (NH3^+)	97 ± 4%	56 ± 2%	9 ± 2%	88 ± 6%	77 ± 10%	Maximal specific activity ((MOUSE)NAT2_F125S; (MOUSE)NAT2_F125S, best substrate, 500 μM): 25 µM/s/mg
NNc1nncc2ccccc12 [HDZ, hydralazine]	68 ± 6%	19 ± 1%	3 ± 1%		100 ± 2%	2 ± 1%	100 ± 1%	8 ± 2%	95 ± 1%	
CCCCCCOc1ccc(N)cc1 [HOA, 4-hexyloxyaniline]	3 ± 4%	47 ± 1%	35 ± 1%	5.1 (NH3^+)	59 ± 3%	12 ± 4%	51 ± 2%	23 ± 2%	80 ± 8%	
NNC(=O)c1ccncc1 [INH, isoniazid]	100 ± 6%	38 ± 2%	1 ± 1%		63 ± 10%	0 ± 2%	62 ± 2%	2 ± 2%	76 ± 14%	Maximal specific activity ((MOUSE)NAT1*1; best substrate, 500 μM): 104 µM/s/mg; pKa(H) (NH2^+-NH3^+) [1]: 2.0; pKa(H) (NH-NH3^+) [1]: 3.9; pKa(H) (pyridine) [1]: 10.8
Nc1ccc(Oc2ccccc2)cc1 [POA, 4-phenoxyaniline]	6 ± 1%	62 ± 2%	22 ± 1%	4.36 (NH3^+)	67 ± 1%	17 ± 7%	62 ± 11%	20 ± 2%	61 ± 2%	
